Assay results: patent US20160168126A1, “CHEMICAL COMPOUNDS” (SYNGENTA LIMITED, priority 2013, published 2016)

Test system: a variety of test species
Test: Post-emergence herbicidal activity (glasshouse, sprayed 8 days after sowing, evaluated after 13 days)
Format: in vivo
Settings: scale 0-5
Procedure: Seeds of a variety of test species were sown in standard soil in pots. After 8 days cultivation (post-emergence) under controlled conditions in a glasshouse (at 24/16° C., day/night; 14 hours light; 65% humidity), the plants were sprayed with an aqueous spray solution derived from the formulation of the technical active ingredient in acetone/water (50:50) solution containing 0.5% Tween 20 (polyoxyethelyene sorbitan monolaurate, CAS RN 9005-64-5). The test plants were then grown in a glasshouse under controlled conditions (at 24/16° C., day/night; 14 hours light; 65% humidity) and watered twice daily. After 13 days, the test was evaluated (5=total damage to plant; 0=no damage to plant).

Compound	Post-emergence herbicidal damage score, ABUTH (Abutilon theophrasti) (1000 g/ha)	Post-emergence herbicidal damage score, ALOMY (Alopecurus myosuroides) (1000 g/ha)	Post-emergence herbicidal damage score, AMARE (Amaranthus retroflexus) (1000 g/ha)	Post-emergence herbicidal damage score, ECHCG (Echinochloa crus-galli) (1000 g/ha)	Post-emergence herbicidal damage score, SETFA (Setaria faberi) (1000 g/ha)	Post-emergence herbicidal damage score, ZEAMX (Zea mays) (1000 g/ha)	Post-emergence herbicidal damage score, ABUTH (Abutilon theophrasti) (250 g/ha)	Post-emergence herbicidal damage score, ALOMY (Alopecurus myosuroides) (250 g/ha)	Post-emergence herbicidal damage score, AMARE (Amaranthus retroflexus) (250 g/ha)	Post-emergence herbicidal damage score, ECHCG (Echinochloa crus-galli) (250 g/ha)	Post-emergence herbicidal damage score, SETFA (Setaria faberi) (250 g/ha)	Post-emergence herbicidal damage score, ZEAMX (Zea mays) (250 g/ha)
CCC1=C(Br)C(O)N(c2nn(C)c(C(C)(C)C)c2C#N)C1=O (stereo not drawn) [Compound H6]	1	2	2	1	2	0						
CC1=C(Cl)C(O)N(c2nn(CC(F)(F)F)c(C)c2C#N)C1=O (stereo not drawn) [Compound C8]	0	0	1	0	0	0						
CCCC1=C(Cl)C(O)N(c2cc(C(C)(C)C#N)n(C)n2)C1=O (stereo not drawn) [Compound E2]	4	4	5	5	4	1						
CCn1nc(N2C(=O)C(C)=C(Cl)C2O)cc1C(C)(C)C (stereo not drawn) [Compound C2]	5	3	4	4	4	0						
CC1=C(Cl)C(O)N(c2cc3n(n2)CCSC3(C)C)C1=O (stereo not drawn) [Compound G6]	5	4	5	4	4	0						
COC1=C(C)C(=O)N(c2cc(C(C)(C)C)n(C)n2)C1O (stereo not drawn) [Compound I2]							5	4	5	3	4	1
CC1=C(Br)C(O)N(c2cc(C(C)(C)C)n(C)n2)C1=O (stereo not drawn) [Compound H1]	5	4	5	5	3	1						
C=CCC(C)(C)c1cc(N2C(=O)C(C)=C(Cl)C2O)nn1C (stereo not drawn) [Compound B6, 3-chloro-1-[5-(1,1-dimethylbut-3-enyl)-1-methyl-pyrazol-3-yl]-2-hydroxy-4-methyl-2H-pyrrol-5-one]	5	5	5	5	5	2						
COC1=C(C)C(=O)N(c2nn(C)c3c2CCC3(C)C)C1O (stereo not drawn) [Compound I4]	5	5	5	5	5	3						
COC1=C(Cl)C(OC(C)=O)N(c2cc(C(C)(C)C)n(C)n2)C1=O (stereo not drawn) [Compound F3, [1-(5-tert-butyl-1-methyl-pyrazol-3-yl)-3-chloro-4-methoxy-5-oxo-2H-pyrrol-2-yl] acetate]	5	5	5	5	5	3						
CC1=C(Cl)C(O)N(c2cc(C(F)(F)C(F)(F)F)[nH]n2)C1=O (stereo not drawn) [Compound A6]	2	1	3	2	2	1						
